Data taken from US8119667B2, “Carbonates of fenicol antibiotics” (Schering-Plough Animal Health Corporation, priority 2005, dated 2012).

Columns and labels:
[1] = In vitro enzymatic release of parent florfenicol from prodrugs in bovine serum; assay type: in vitro ADME; settings: 37° C.
Excerpt: The ability of a prodrug derivative of a parent drug molecule to act efficiently in vivo as a source of the free parent drug determines the utility of a particular prodrug for treatment. The prodrug's ability to release the parent drug in vivo, in the presence of endogenous enzymes, can be determined by measuring the systemic levels of the parent drug after administration of the prodrug to the animal. This releasibility can also be assessed in vitro by measuring the release of the parent drug after mixing with animal whole blood, plasma or serum. Selected benzylic carbonate prodrugs of florfenicol were tested for release of florfenicol after in vitro mixing with bovine serum. […] A general trend of more lipophilic carbonates of florfenicol showing higher rates of degradation and release seems to be present among the compounds tested.
50 microliter of stock solution of carbonate pro-drug (10 mg/mL in DMSO) was added to 5 mL donor bovine serum and mixed. Aliquots of 400 microliter of the resulting solution were transferred into 1.5 mL plastic centrifuge tubes. Each plastic tube was placed into at 37° C. water bath for incubation. Samples were removed at 0, 1, 2, 4, 8, and 24 hours, and after addition of 400 microliter of acetonitrile to stop the reaction, rapidly stirred for 30 seconds. The precipitate was removed by centrifugation on an Eppendorf 5415G at 14000 rpm for 5 minutes. The clear supernatant solution was sampled for the HPLC analysis. The peak area of florfenicol was used to calculate the conversion of the prodrugs.

[2] = In vivo release of florfenicol: plasma levels after prodrug administration to rats; design: species or system Rat; settings: IV
Description: The pharmacokinetic profile of active antibiotic after prodrug administration, in vivo, was determined, as follows: • 1. In vivo release of active antibiotic confirmed in two different animal species: • The prodrug compound of Example 18 was administered by an intravenous (“IV”) route to rat and cattle subjects, followed by determination of florfenicol concentrations in the plasma collected over time. • The data of Table 8, below, illustrates the plasma levels of florfenicol that resulted following IV administration of the prodrug compound of Example 18, to both rat and cattle. • 4. Time of release of active moiety: • a.

[3] = tested on: naturally occurring bovine respiratory disease (BRD); experiment: Therapeutic efficacy of a single SC dose in cattle with naturally occurring bovine respiratory disease; assay type: in vivo
Excerpt: Therapeutic efficacy of a single dose of Nuflor® (Schering-Plough Animal Health) was compared with a single dose of the prodrug compound of Example 2 after SC administration in cattle suffering from naturally occurring bovine respiratory disease (BRD).

SMILES: CCOC(=O)O[C@H](c1ccc(S(C)(=O)=O)cc1)[C@@H](CF)NC(=O)C(Cl)Cl [Example 2, (1R,2S)-2-(2,2-dichloroacetamido)-3-fluoro-1-(4-(methylsulfonyl)phenyl)propyl ethyl carbonate]
- Florfenicol released from prodrugs (% of total) after treatment with bovine serum ([1]; 0 h): BQL^a
- Florfenicol released from prodrugs (% of total) after treatment with bovine serum ([1]; 1 h): BQL
- Florfenicol released from prodrugs (% of total) after treatment with bovine serum ([1]; 2 h): BQL
- time of release of active antibiotic (florfenicol) after administration [2]: less than half an hour
- Treatment Failure (on day 10) ([3]; single S/C dose equivalent to 40 mg/kg of florfenicol (Nuflor 40 mg/kg; Example 2 48 mg/kg), animals failing out of animals treated): 5 out of 24
- Temp. (day 0) ([3]; single S/C dose equivalent to 40 mg/kg of florfenicol (Nuflor 40 mg/kg; Example 2 48 mg/kg), day 0): 40.4 °C
- Temp. (day 3) ([3]; single S/C dose equivalent to 40 mg/kg of florfenicol (Nuflor 40 mg/kg; Example 2 48 mg/kg), day 3): 38.8 °C
- Temp. (day 10) ([3]; single S/C dose equivalent to 40 mg/kg of florfenicol (Nuflor 40 mg/kg; Example 2 48 mg/kg), day 10): 38.7 °C
- efficacy compared with Nuflor ([3]; single SC dose, cattle with BRD): comparable
